Experimental data published in paper PMC10303838, “Atlantic Salmon Gill Epithelial Cell Line (ASG-10) as a Suitable Model for Xenobiotic Biotransformation” (Metabolites, 2023).
Structures can show the parent of a compound that is named as a salt. Where two headings read alike, the source gives them in different places.

Tests used:
[1] = test system: ASG-10; assay: CYP activities in ASG-10: metabolite formation from specific substrates (LC-TQMS); conditions: non-induced cells, combined substrates 2; 5; 10 µM, 24 h, 19 °C
[2] = test system: CYP1A; assay: CYP1A immunochemical analysis (immunoblot) in BNF-stimulated ASG-10; assay type: cell-based, Atlantic salmon (Salmo salar); conditions: 24 h
Method: The ASG-10 cells were seeded into 6-well plates as described in Section 2.2. After two days, the cells were stimulated with BNF (1–100 nM, 24 h), a well-known non-toxic inducer of CYP1A protein expression. After exposure, the cells were washed twice in ice-cold PBS and placed at −70 °C until the next day. The cells were then scraped in cell lysis buffer with 0.8% SDS and 1% proteinase inhibitor cocktail added and centrifuged (10,000× g, 1 min) through use of the QIAshredder for homogenization. The protein concentrations were quantified by using the Bio-Rad DC kit (Hercules, CA, USA) and the samples were adjusted to equal protein concentration with lysis buffer before being denatured through the addition of NuPage lithium dodecyl sulfate (LDS) sample buffer and NuPage reducing agent as described by the manufacturer (Invitrogen, Waltham, MA, USA). Blotting was performed using the NuPage Novex system from Invitrogen (Thermo Fisher), applying […] protein per well on a 4–12% NuPage BisTris gel. Separation was performed under reducing conditions for 40 min at 200 V in 3-(N-morpholino) propane sulfonic acid (MOPS)–SDS running buffer using the Novex Sharp pre-stained standard with a range of 3.5–260 kDa. […]

[3] = test system: CYP1A; assay: EROD assay in BNF-stimulated ASG-10; assay type: cell-based, Atlantic salmon (Salmo salar); conditions: ASG-10, BNF 1 to 100 nM, 24 h
Method: CYP1A induction in BNF-stimulated ASG-10 was measured using the ethoxyresorufin-O-deethylase (EROD) assay. CYP1A converts 7-ethoxyresorufin to resorufin, which can be measured by fluorescence spectroscopy. The assay was performed as described in [17], with minor modifications. Briefly, the cells were seeded in a black 96-well plate as described in Section 2.2. After two days, the cells were incubated with the CYP1A inducer β-naphthoflavone (BNF; 1–100 nM) for 24 h. BNF was dissolved in DMSO. The final DMSO concentration in the cell culture was 0.1%. Appropriate controls containing the same amount of DMSO were included in each experiment. The next day, the culture medium was replaced with 200 µL EROD assay media (DMEM w/o phenol red; 10% FBS, 8 µM 7-ethoxyresorufin), and resorufin fluorescence (excitation: 530 nm/emission: 580 nm) was detected after 60 min using a Spectramax i3x plate reader.

[4] = test system: CYP1A; set-up: method as in doi:10.1002/etc.5620160509; conditions: PLHC-1, 24 h; cited from earlier work
[5] = test system: CYP1A; set-up: method as in doi:10.1002/etc.5620160509; conditions: cited from earlier work
[6] = test system: CYP1A; set-up: method as in PMID 10630570; conditions: primary carp hepatocytes, 20 nM, 18 h; cited from earlier work
[7] = test system: CYP1A; set-up: method as in PMID 1897246; conditions: rainbow trout liver primary cells, 3.6 to 360 nM BNF, 48 h, dose-dependent; cited from earlier work
[8] = test system: CYP1A1; set-up: method as in PMID 12413795; conditions: BNF exposure; cited from earlier work
[9] = test system: ASG-10; assay: BZ metabolism in ASG-10 (LC-HRMS/MS); assay type: in vitro ADME, Atlantic salmon (Salmo salar); conditions: 303 µM BZ, 24 h, 45,000 or 90,000 cells/well, LC-HRMS peak areas
Method: BZ, an anesthetic commonly used in aquaculture, was used to evaluate the potential activity of N-acetyltransferases (NAT) and esterases in ASG-10, SLMs and S9. The production of BZ-related metabolites was determined by liquid chromatography high-resolution tandem mass spectrometry (LC-HRMS/MS). When available, reference standards were used for the specification of metabolites.
BZ metabolism was investigated in ASG-10 cells plated in a 96-well plate as described in Section 2.2. The culture medium was replaced by fresh medium containing BZ (Table 1).
(§1) BZ biotransformation products were determined using a Q Exactive™ hybrid quadrupole-Orbitrap mass spectrometer equipped with a heated electrospray ion source (HESI-II) and coupled to a Vanquish UHPLC system (Thermo Fisher Scientific). […]
(§2) Mass spectra were acquired in the full scan mode, applying sequential data-dependent top 5 analysis (ddMS2-top5) with an inclusion list containing masses of interest. […] BZ and BZ-related compounds were determined by targeted parallel reaction monitoring (PRM). […]
The mobile phase was composed of solvent A (water) and solvent B (MeOH), both containing 0.1% formic acid. […] Raw data were acquired by Xcalibur (Version 4.0, Thermo Fisher Scientific), and molecular formula assignments and mass error were evaluated within the same software (Elemental Composition tab). […]

[10] = CYP activities in salmon liver microsomes (SLMs) and S9; conditions: both SLMs (2 mg/mL protein) and S9 (4 mg/mL protein), 20 °C, up to 60 min
[11] = set-up: method as in doi:10.1016/S0166-445X(96)00792-8; conditions: channel catfish; cited from earlier work
[12] = Incubation of N-acetylated BZ (AcBZ) in SLMs, hydroxylation; assay type: in vitro ADME, Atlantic salmon; conditions: AcBZ as starting substance, 1 h
Method: A volume of 30 µL of 1 mg/mL BZ in 100% MeOH was evaporated (40 °C, N2) in a 1.5 mL vial. The residue was redissolved in 100 µL acetic anhydride (Sigma) and 100 µL pyridine (Sigma). The vial was placed at room temperature for 18 h. Subsequently, the reaction was stopped by the addition of 200 µL 100% MeOH. After evaporation, the residue was dissolved in 150 µL 100% MeOH (solution A). As control, 30 µL of BZ solution was evaporated and re-dissolved in 150 µL 100% MeOH (solution B). Afterwards, 3 µL of solutions A and B were incubated in SLMs as described above.

[13] = UGT activities in salmon liver microsomes (SLMs) and S9; conditions: SLMs (2 mg/mL) and S9 (4 mg/mL), 20 °C, up to 60 min
[14] = BZ metabolism in SLMs and S9 (LC-HRMS/MS); conditions: SLMs 1 µM BZ, S9 3 µM BZ (Figure 9 legend: 1 µM), 1 h
Method: The production of BZ-related metabolites was determined by liquid chromatography high-resolution tandem mass spectrometry (LC-HRMS/MS).
Additionally, BZ metabolism was investigated in SLMs (1 µM BZ) and S9 (3 µM BZ) (Table 1). The incubations were first performed separately for phase I and phase II metabolism, and a combined assay was performed afterwards. The reaction mixture (total assay volume 0.5 mL) contained 0.8 mM NADPH, 0.7 mM NADP+, 7.5 mM UDPGA and 0.3 mM UDPAG. Aliquots (150 µL) were drawn at 0, 30 and 60 min and mixed with an equal volume of ice-cold 100% MeCN. […] After filtration (Costar Spin-X® 0.22 mm Nylon filter; Corning, Inc.; Corning, NY, USA), the concentrated samples were analyzed using LC-HRMS/MS.
as §1, §2

[15] = test system: ASG-10; assay: Alamar Blue assay, metabolic activity/viability of ASG-10; assay type: cell-based, Atlantic salmon (Salmo salar); conditions: ASG-10, 121 or 303 µM BZ, 24 h
Method: Alamar Blue assay: The metabolic activity/viability of the ASG-10 cell line was measured using the Alamar Blue assay according to the manufacturer’s protocol (Thermo Fisher). After exposure to test compounds with potential cell toxicity, Alamar Blue was added to the cell culture, and incubated for 3 h. […] The fluorescence (excitation: 555 nm/emission: 585 nm) was quantified using a Spectramax i3x plate reader (Molecular Devices, San Jose, CA, USA).

[16] = test system: ASG-10; assay: CellTox Green cytotoxicity assay in ASG-10; assay type: cell-based, Atlantic salmon (Salmo salar); conditions: ASG-10, 121 or 303 µM BZ, 48 h
Method: CellTox™ Green assay: The non-toxic dye CellTox™ Green stains DNA in cells with impaired membrane integrity. Binding interactions with DNA produce a fluorescence signal that is proportional to cytotoxicity (necrotic, late apoptotic cells). CellTox™ Green dye was added to the cells as described by the manufacturer (Promega) and fluorescence visualized by microscopy (Zeiss Observer A1, Carl Zeiss, Oberkochen, Germany).

[17] = cited from earlier work
[18] = cited from earlier work; remark: listed apart in the source
[19] = set-up: method as in doi:10.5772/intechopen.91700; conditions: cited from earlier work
[20] = set-up: method as in PMID 1897251; conditions: rainbow trout, within 3 h, mainly as AcBZ; cited from earlier work
[21] = test system: Zebrafish embryos; set-up: method as in PMID 27571242; conditions: 48 h exposure; cited from earlier work
[22] = test system: methemoglobin; set-up: method as in PMID 32974865; conditions: immersion in a sedating BZ dose or repeated anesthesia; cited from earlier work
[23] = test system: CYP1A1; set-up: method as in doi:10.1002/etc.5620161220; conditions: juvenile Atlantic salmon; cited from earlier work
[24] = test system: CYP2K1; set-up: method as in doi:10.1002/etc.5620161220; conditions: juvenile Atlantic salmon; cited from earlier work
[25] = test system: CYP3A27; set-up: method as in doi:10.1002/etc.5620161220; conditions: juvenile Atlantic salmon; cited from earlier work
[26] = different fish species including rainbow trout and Atlantic salmon

Cc1ncc2n1-c1ccc(Cl)cc1C(c1ccccc1F)=NC2O (stereo not shown) [4-OH-MDZ, 4-hydroxymidazolam]
Formation of metabolites of specific CYP substrates in ASG-10 [1]: observed

O=c1cc(-c2ccccc2)oc2ccc3ccccc3c12 [BNF, β-naphthoflavone]
CYP1A protein increase ([2]; ASG-10, 1 nM BNF): visible CYP1A protein increase | CYP1A protein (immunochemical analysis) ([2]; ASG-10, BNF 1 to 100 nM): concentration-dependent increase | CYP1A enzyme activity (EROD assay) [3]: concentration-dependent increase | BNF concentration required to produce a detectable CYP1A protein increase [4]: 1 µM | increase in EROD enzyme activity ([5]; PLHC-1, 100 nM BNF): eightfold | increase in EROD enzyme activity ([5]; PLHC-1, 1 µM BNF): 100 fold | increase in the EROD rate [6]: 30 fold | maximum EROD rate increase [7]: nine-fold | CYP1A1 induction in salmon liver [8]: can be induced

CCOC(=O)c1ccc(NO)cc1 [BZOH, Benzocaine hydroxylamine]
BZ metabolites produced in ASG-10 cells [9]: produced

O=c1[nH]c2cc(Cl)c(O)cc2o1 [6-OH-CH, 6-hydroxychlorzoxazone]
Formation of CYP-specific metabolites / substrate conversion in SLMs and S9 [10]: low

CN1CC[C@@]23CCCC[C@@H]2[C@@H]1Cc1ccc(O)cc13 [DOR, dextrophan]
Formation of metabolites of specific CYP substrates in ASG-10 [1]: observed

CC(=O)Nc1ccc(C(=O)O)cc1 [AcPABA, p-acetaminobenzoic acid]
time detected in most tissues after water exposure to BZ [11]: up to 144 h

CCOC(=O)c1ccc(NC(C)=O)cc1 [AcBZ, acetylbenzocaine]
BZ metabolites produced in ASG-10 cells [9]: major biotransformation product | Hydroxylation product after incubation in SLMs [12]: no longer detectable | time detected in most tissues after water exposure to BZ [11]: up to 144 h

CN1CCN(CCCN2c3ccccc3Sc3ccc(C(F)(F)F)cc32)CC1 [TFP, trifluoperazine dihydrochloride]
Formation of UGT-specific metabolites in SLMs and S9 [13]: not measurable

C=CCN1CC[C@]23c4c5ccc(O[C@@H]6O[C@H](C(=O)O)[C@@H](O)[C@H](O)[C@H]6O)c4O[C@H]2C(=O)CC[C@@]3(O)[C@H]1C5 [NLX-GlcA, naloxone-3β-D glucuronide]
Formation of UGT-specific metabolites in SLMs and S9 [13]: highest metabolite level

CC(=O)NCCc1c[nH]c2ccc(O[C@@H]3O[C@H](C(=O)O)[C@@H](O)[C@H](O)[C@H]3O)cc12 [NAS-GlcA, N-acetyl serotonin β-D-glucuronide]
Formation of UGT-specific metabolites in SLMs and S9 [13]: low

Nc1ccc(C(=O)O)cc1 [PABA, p-aminobenzoic acid]
BZ metabolites in SLM and S9 incubations [14]: not detectable

CCOC(=O)c1ccc(N)cc1 [BZ, ethyl 4-aminobenzoate]
Metabolic activity or viability (Alamar Blue) [15]: did not affect | Cytotoxicity (Celltox Green assay) [16]: no cytotoxicic effects | distribution volumes [17, 26]: rather high | mean residence times [17, 26]: below 15 min | plasma half-life ([17]; salmonids): less than 2 h | time to maximal concentrations in blood ([17]; under water exposure): less than 2 min | solubility in more lipidic solvents relative to water ([18]; MeOH and chloroform): ~1000 times | water solubility ([18]; non-salt BZ, 20 °C): 400 µg/mL | n-octanol/water coefficient (pKOW) [19]: 1.44 | share of applied BZ dose eliminated through the gills [20]: about 59% | time detected in most tissues after water exposure to BZ [11]: up to 144 h | AcBZ and PABA together as share of the total BZ amount [21]: 90% | blood levels of methemoglobin [22]: increased blood levels of methemoglobin

CCCCCCCCCc1ccc(O)cc1 [4-nonylphenol]
CYP1A1 activity in liver [23]: dose-dependently reduced | CYP2K1 activity in liver [24]: dose-dependently reduced | CYP3A27 activity in liver [25]: dose-dependently reduced
